Where two headings read alike, the source gives them in different places.
Test: Plasma and urine pharmacokinetics, noncompartmental analysis
Assay type: in vivo, human
Settings: for half-life / Tmax: human, plasma; for half-life: po; for Tmax: oral
Procedure: DLTs included: cycle 1 grade ≥3 hematologic and non-hematologic events or grade 2 non-hematologic events considered by the investigator to be TAK-931-related, grade 2 ejection fraction decrease, >2 weeks delay in initiating cycle 2 (1 week for schedules D and E), and >50% TAK-931 dose reduction in cycle 1 due to treatment-related adverse events (AEs; see Supplementary Materials and Methods for full DLT criteria). Toxicity was evaluated by NCI Common Terminology Criteria for Adverse Events (version 4.03). Tumor response was measured using the RECIST (version 1.1) ([16]). Serial blood samples for pharmacokinetic analysis were collected during cycle 1 on days 1 and 7 (schedule B), 1 and 8 (schedules A and D), or 1 and 9 (schedule E). Pharmacokinetic parameters were estimated from concentration–time profiles using noncompartmental methods with WinNonlin® Phoenix™ version 8.1 (Certara, Princeton, NJ). pMCM2 was detected semiquantitatively by IHC of histologic sections of formalin-fixed, paraffin-embedded skin and tumor biopsies using anti-pMCM2 (3378-1, Epitomics Inc.; ref. [15]). Quantitative image analysis determined pMCM2 levels as “histologic score nuclei (H-score).” Skin punch biopsies (2–4 mm) were obtained during screening or predose on cycle 1, day 1 and for patients in schedules A, B, and D, postdose on any drug dosing day after 3 consecutive dosing days in cycle 1. A postdose skin biopsy was obtained on day 9 in schedule E. Fresh tumor biopsy pairs were collected predose and postdose on any dosing day after the completion of 3 consecutive dosing days in cycle 1 from patients who received doses considered to have biological effect.
The safety population included patients who received ≥1 dose of TAK-931. The pharmacodynamic-evaluable population comprised patients from the safety population with a baseline and ≥1 additional postbaseline biopsy sample that was suitable for pMCM2 analysis. The pharmacokinetic-evaluable population included patients with sufficient dosing and TAK-931 concentration–time data to estimate pharmacokinetic parameters. The response-evaluable population included patients in the safety population with measurable disease at baseline and ≥1 postbaseline response assessment.

Cc1[nH]ncc1-c1cc2nc([C@@H]3CC4CCN3CC4)[nH]c(=O)c2s1 [TAK-931, simurosertib]
Accumulation following higher doses (120 and 150 mg): minor accumulation
Renal clearance (CLr) as share of total apparent clearance (estimated amount excreted in urine, n = 79): approximately 8%
half-life (50 mg, oral administration of 50 mg, read-out: Terminal half-life (converted)): ~5 h
half-life (oral administration, read-out: Estimated T1/2): 5 to 6 h
half-life (oral administration, read-out: Mean half-life (T1/2)): 4.58 to 6.53 h
Tmax (50 mg dose, read-out: Tmax): ~2 h
Tmax (postdose, over the dose range of 20–50 mg, read-out: Median time to maximum plasma concentration (Tmax)): 1 to 4 h
Systemic exposures between day 1 and days 7, 8, or 9 (multiple dosing): mostly unchanged
Plasma exposure vs dose (single- and multiple-dose administration over 20–50 mg): approximately dose proportional
Systemic exposure vs dose (dose-normalized AUC24) (single- and multiple-dose administration over the range 20–150 mg): approximately dose proportional
